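Five concentrations, 48 hours, 96-well plates. The concentration for full growth arrest is given as TGI.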
Key:
Test in all cases: inhibition of tumour cell growth, NCI panel, 48 h
HCT-15 colon = system: HCT-15 colon
MCF7 breast = system: MCF7 breast
MDA-MB-435 = system: MDA-MB-435
NCI-H226 lung = system: NCI-H226 lung
OVCAR-3 ovarian = system: OVCAR-3 ovarian
RPMI-8226 leukemia = system: RPMI-8226 leukemia
RXF 393 renal = system: RXF 393 renal
SF-539 CNS = system: SF-539 CNS
SK-MEL-2 melanoma = system: SK-MEL-2 melanoma
HL-60(TB) leukemia = system: HL-60(TB) leukemia

Row | Compound | TGI (HCT-15 colon) [µM] | TGI (MCF7 breast) [µM] | TGI (MDA-MB-435) [µM] | TGI (NCI-H226 lung) [µM] | TGI (OVCAR-3 ovarian) [µM] | TGI (RPMI-8226 leukemia) [µM] | TGI (RXF 393 renal) [µM] | TGI (SF-539 CNS) [µM] | TGI (SK-MEL-2 melanoma) [µM] | TGI (HL-60(TB) leukemia) [µM]
1 | CC[C@@]1(O)C(=O)OCc2c1cc1n(c2=O)Cc2c-1nc1ccccc1c2/C=N/NC(=O)c1ccc(N)cc1 | > 100 | > 100 | > 100 | 0.528 | > 100 | > 100 | 0.22 | 0.019 | > 100 | 
2 | COc1cccc(/C=C2\S/C(=N/Nc3nc(-c4ccc([N+](=O)[O-])cc4)cs3)NC2=O)c1O | 33.9 | 38.2 | 42.2 | 47.3 | 30.1 | 35.2 |  | 22 |  | > 100
3 | CCCCCCCCCCCCCCCCCCOCC(O)COP(=O)(O)OCC1OC(n2ccc(N)nc2=O)C(O)C1O (configuration not stated) | 47.9 | > 100 | > 100 | > 100 | > 100 | 52.9 | 33.3 | 34.4 |  | 30.8
4 | Nc1nc(-c2ccco2)cc(-c2ccc(CO)o2)n1 | > 100 |  |  | > 100 | > 100 | > 100 | > 100 | > 100 | > 100 | > 100
5 | COc1cccc(NC(=O)CC(=O)N2N=C(n3ccc4ccccc43)CC2c2ccccc2)c1 (configuration not stated) | > 100 |  |  |  | > 100 | > 100 | > 100 | > 100 | > 100 | > 100
6 | COC1=C(C)C(=O)c2c(cc3c(c2O)C(C)(CCC=C(C)C)C(C)O3)C1=O (configuration not stated) | > 57.2 |  |  | 37.5 | > 100 | > 100 | > 100 | > 100 | > 60.8 | > 100
7 | O=C1c2ccccc2N2Oc3ccccc3C12c1ccccc1 (configuration not stated) | > 100 |  |  | > 100 |  | > 100 | > 100 | > 100 |  | > 100
8 | Fc1ccc(C(OCCN2CC3CCC(C2)N3CCCc2ccccc2)c2ccc(F)cc2)cc1 | 12.2 | 10.7 | 4.68 | 13.1 | 21.8 | 4.8 |  | 3.63 | 12 | 14.1
9 | Cc1ccc(N/C(SCc2ccccc2)=C(\C(Cl)=C(Cl)Cl)[N+](=O)[O-])c(C)c1 | 34.9 | > 100 | 26.1 | > 100 | 40.2 | > 100 |  | 46.1 | > 100 | 
10 | COc1cc2c(cc1OC)[C@@H](Nc1ccc(F)cc1)C1COC(=O)[C@@H]1C2c1cc(OC)c(O)c(OC)c1 (some centres not stated) | > 32.1 |  |  | 1.64 | > 100 | 2.45 | 71.8 | 4.26 | > 60.9 | 0.626
11 | CCOc1ccc(N/C(=C(/C(Cl)=C(/Cl)NC(C)(C)C)[N+](=O)[O-])n2nnc3ccccc32)cc1 | 39 | 65.1 | 33.6 | > 100 | 72.2 | > 100 | 41.8 | 57.6 | > 100 | 
12 | CCc1ccccc1NC(=O)/C(N=O)=C(/C)O | > 100 |  |  | > 100 | > 100 | > 100 | > 100 | > 100 | > 100 | > 100
13 | COc1ccc(NC(=S)c2ccoc2C)cc1CC(=O)OC(C)C | > 100 | 51.5 | > 100 | 68 | > 100 | > 100 |  | > 100 | 40.6 | 54.5
14 | Cc1cnc2sn(-c3ccc(Br)cc3)c(=O)c2c1 | > 100 | > 100 | > 100 | > 100 | 62.7 | > 100 |  | > 100 | > 100 | 49.7
15 | Cc1cccc(N/C(Sc2ccccc2)=C(/C(Cl)=C(Cl)Cl)[N+](=O)[O-])c1 | 29.4 | 91.3 | 34 | 35.2 | 21.6 | > 100 |  | 31.3 | > 100 | 
16 | Cc1ccc2c(/C=C/c3ccc(N(C)C)cc3)ccc(C(C)C)cc1-2 |  | > 100 | > 100 | > 100 | > 100 | > 100 | > 100 |  | > 100 | 88.3
17 | CCCCCCCCC/C=C1\CCC(CN(C)C)C1=O (configuration not stated) | 4.66 |  |  | 23.9 |  |  |  | 3.18 | 6.42 | 5.31
18 | CC(=O)OC(Cc1c(O)c2c(C)cccc2oc1=O)C(C)(C)O (configuration not stated) | > 100 | > 100 | > 100 | > 100 | > 100 | > 100 |  | > 100 | > 100 | > 100
19 | Cc1n(Cc2ccccc2)nc2sc(N)n[n+]12 | > 100 | > 100 | > 100 | > 100 | > 100 | > 100 | > 100 | > 100 | > 100 | 
20 | O=C(c1ccc(Cl)cc1)N(C(=S)OCCOc1ccccc1)c1ccccc1 | 42.2 | 32.4 | 30.7 |  | 30.9 | 44.1 | 39.3 | 34 | 45.7 | 38.6
21 | Cn1c(N)nc(-c2ccc(Cl)cc2)c1SSc1c(-c2ccc(Cl)cc2)nc(N)n1C | 3.44 |  | 3.54 | 83.5 | 3.54 | 3.3 | 5.47 | 3.33 | 32.1 | 2.92
22 | CCOC(=O)c1nnc2c(C#N)c(-c3ccccc3)c(C)n2c1N | > 100 | > 100 | > 100 |  | > 100 | 53.9 | > 100 | > 100 | > 100 | 
23 | COC(=O)CC1c2ccccc2N2C(=O)Cc3c([nH]c4ccccc34)C12 (configuration not stated) | > 100 | > 100 | > 100 | > 100 | > 100 | > 100 | > 100 |  | > 100 | 
24 | CSc1nc2c(c(=O)[nH]1)N=C(c1ccccc1)CC(c1ccccc1)N2 (configuration not stated) |  | 36 | > 100 | > 100 | > 100 | 71 | 79.6 | 66.3 | 76.7 | 59.2
